# According to US20230017266A1, “Cyclooxygenase-2 Inhibition for the Treatment of SAA-high Asthma” (THE USA, AS REPRESENTED BY THE SECRETARY, DEPT. OF HEALTH …, priority 2019, published 2023):
# Columns and labels:
# Assay type in all cases: cell-based, human
# Settings in all cases: diclofenac 1 mM, 24 h
# [1] = test system: CD14^+ monocytes; test: HDL+SAA1-induced cytokine secretion by ex vivo CD14+ monocytes (ELISA)
# Description: Isolation of Peripheral Blood Monocytes. Peripheral blood monocytes were isolated using a two-step process. Peripheral blood was diluted with PBS at a 1:1 ratio, slowly overlaid onto 30 ml of Lymphoprep™ (catalog #07811, StemCell Technologies, Vancouver Canada) in a 50 ml conical tube, and centrifuged at 400×g for 25 min without braking. The peripheral blood mononuclear cell (PBMC) layer was carefully transferred to another 50 ml conical tube, washed with PBS, followed by two washes with FACS buffer (0.5 mM EDTA, 1% BSA, and 1% mouse serum in PBS). Monocytes subsets were identified and sorted by flow cytometry using the following antibodies: PE mouse anti-human CD45 clone HI30 (catalog #555483), BV421 mouse anti-human CD14 clone MφP9 (catalog #563743), and FITC mouse anti-human CD16 clone B73.1 (catalog #561308), and a FACS ARIA Fusion sorter equipped with 355, 407, 488, 532 and 640 nm LASER lines using FACS DIVA 8.0 software (all from BD Biosciences, San Jose, Calif.). The gating strategy identified a population of debris-free, single, live, ^SSCmoderate/high, CD45^+ cells from which CD14^+/CD16^− (classical), CD14^+/CD16^+ (intermediate), CD14^dim/CD16^+ (non-classical), and CD14^+ (classical and intermediate) cells were sorted and utilized for experiments, as indicated (Supplemental FIG. 4).
# HDL+SAA1 Stimulation of Peripheral Blood Monocytes Subsets. […] As previously described, normal HDL was isolated from plasma obtained from healthy subjects by sequential KBr differential gradient ultracentrifugation at 330,000 g and extensive dialysis with 50 mM HEPES, 50 mM NaCL, 5 mM MgCl2 and 2 mM CaCl2, pH 7.0, at 4° C. Normal HDL was complexed with recombinant human serum amyloid A-1 at a 2:1 ratio by mixing and incubated at RT overnight to generate HDL+SAA1, which was filtered using a 100-kDa exclusion filter (Amicon Ultra Centrifuge Filters, Millipore, Darmstadt, Germany) to remove any uncomplexed SAA1. Normal HDL was also complexed with the amount of lipopolysaccharide (catalog # L4391, E. coli 0111:B4, y-irradiated, MilliporeSigma, St. Louis, Mo.) present in recombinant human SAA1. Additionally, classical CD14^+ monocytes were treated with the P2X7R antagonist, A438079, the IKK inhibitor, BAY-11-7082, the IKKβ (IKK-2) inhibitor, TPCA-1, or the selective COX-2 inhibitor, celexocib, all from MilliporeSigma(St. Louis, Mo.). Cells were also treated with the FPR2 antagonist, WRW4, or diclofenac from Tocris (Minneapolis, Minn.). The amount of IL-1β, IL-6, TNF-α and IL-10 secreted into cell culture supernatants was quantified using human DuoSet ELISA kits (R&D Systems) and data were acquired using a SpectraMax M2 spectrophotometer (Molecular Devices, San Jose, Calif.). Western blotting, as previously described^43, was performed using antibodies directed against COX-1 (catalog #160110) and COX-2 (catalog #160112), both from Cayman Chemical (Ann Arbor, Mich.). Equivalency of protein loading was established using an antibody directed against GAPDH (catalog #MAB5718) from R&D Systems (Minneapolis, Minn.). Western blots images were captured using an iBright FL1000 Western Blot Imaging System (ThermoFisher Scientific, Waltham, Mass.) and quantified using NIH ImageJ software (imagej.nih.gov). […]
# [2] = test system: CD14^+ monocytes; test: as above; remark: listed apart in the source
# [3] = test system: CD14^+ monocytes; test: PGE2 and TXB2 secreted by CD14+ monocytes cultured with HDL+SAA1
# Excerpt: FIG. 4 illustrates that HDL enriched with serum amyloid A (HDL+SAA1) induces cytokine secretion from CD14+ monocytes via a P2X7R/NF-κB/COX-2-dependent pathway. a, Volcano plot showing differentially expressed mRNA transcripts from classical CD14+/CD16− monocytes from asthmatics (n=10) that were stimulated ex vivo with or without HDL enriched with recombinant human SAA1 (HDL+SAA1). Additional experiments utilized ex vivo cultures of CD14^+ monocytes isolated by flow cytometry from healthy subjects to characterize the HDL+SAA1-mediated P2X7R/NF-κB/COX-2-dependent pathway, except where indicated. b, PTGS2 mRNA levels were quantified by qRT-PCR in cells stimulated with normal HDL or HDL+SAA1 and presented as RQ (relative quantification). n=7 subjects, pairwise comparisons of all groups vs. media, repeated measures one-way ANOVA with Dunnett's multiple comparisons test. c, Western blot showing COX-1 and COX-2 protein in cells stimulated with normal HDL or HDL+SAA1. GAPDH is shown as a control for equivalency of protein loading. The Western blot shown is representative of 3 independent experiments using cells from different subjects. […]
smiles,measurement,setting,value
"O=C(O)Cc1ccccc1Nc1c(Cl)cccc1Cl [diclofenac, 2-[(2,6-dichlorophenyl)amino] benzeneacetic acid]",HDL+SAA1-mediated secretion of IL-6,[1],significantly inhibited
same,HDL+SAA1-mediated secretion of IL-10,[1],significantly inhibited
same,HDL+SAA1-mediated secretion of TNF-α,[1],significantly inhibited
same,HDL+SAA1-mediated secretion of IL-13,[2],significantly inhibited
same,HDL+SAA1-induced increase in prostaglandin E2,[3],suppressed
same,HDL+SAA1-induced increase in thromboxane B2,[3],suppressed
